This experiment has as its target ROCK2 (Homo sapiens, UniProt O75116). The experiment can be described thus: ROCK assay: phosphorylation of FITC peptide substrate, LABCHIP 3000 mobility shift. The class given is biochemical. Conditions: 5 μM ATP, 1.5 μM peptide substrate; read-out: ROCK2 Activity (ROCK IC50 range). Here is the method: The effectiveness of compounds of the present invention as ROCK inhibitors can be determined in a 30 μL assay containing 20 mM HEPES, pH 7.5, 20 mM MgCl2, 0.015% Brij-35, 4 mM DTT, 5 μM ATP and 1.5 μM peptide substrate (FITC-AHA-AKRRRLSSLRA-OH). Compounds were dissolved in DMSO so that the final concentration of DMSO was <2%, and the reaction was initiated with Rho kinase variants. After incubation, the reaction was terminated by the addition of EDTA and the phosphorylated and non-phosphorylated peptides separated using a LABCHIP® 3000 Reader (Caliper Life Sciences). […] Compounds were tested in dose-response format, and the inhibition of kinase activity was calculated at each concentration of compound. The inhibition data were fit using a curve-fitting program to determine the IC50; i.e., the concentration of compound required to inhibit 50% of kinase activity.
Representative Examples were tested in the ROCK assay described above and found having ROCK inhibitory activity.

Structures are written as SMILES. pIC50: −log10 of the molar value.

ROCK2, sequence (O75116 whole entry, species assumed): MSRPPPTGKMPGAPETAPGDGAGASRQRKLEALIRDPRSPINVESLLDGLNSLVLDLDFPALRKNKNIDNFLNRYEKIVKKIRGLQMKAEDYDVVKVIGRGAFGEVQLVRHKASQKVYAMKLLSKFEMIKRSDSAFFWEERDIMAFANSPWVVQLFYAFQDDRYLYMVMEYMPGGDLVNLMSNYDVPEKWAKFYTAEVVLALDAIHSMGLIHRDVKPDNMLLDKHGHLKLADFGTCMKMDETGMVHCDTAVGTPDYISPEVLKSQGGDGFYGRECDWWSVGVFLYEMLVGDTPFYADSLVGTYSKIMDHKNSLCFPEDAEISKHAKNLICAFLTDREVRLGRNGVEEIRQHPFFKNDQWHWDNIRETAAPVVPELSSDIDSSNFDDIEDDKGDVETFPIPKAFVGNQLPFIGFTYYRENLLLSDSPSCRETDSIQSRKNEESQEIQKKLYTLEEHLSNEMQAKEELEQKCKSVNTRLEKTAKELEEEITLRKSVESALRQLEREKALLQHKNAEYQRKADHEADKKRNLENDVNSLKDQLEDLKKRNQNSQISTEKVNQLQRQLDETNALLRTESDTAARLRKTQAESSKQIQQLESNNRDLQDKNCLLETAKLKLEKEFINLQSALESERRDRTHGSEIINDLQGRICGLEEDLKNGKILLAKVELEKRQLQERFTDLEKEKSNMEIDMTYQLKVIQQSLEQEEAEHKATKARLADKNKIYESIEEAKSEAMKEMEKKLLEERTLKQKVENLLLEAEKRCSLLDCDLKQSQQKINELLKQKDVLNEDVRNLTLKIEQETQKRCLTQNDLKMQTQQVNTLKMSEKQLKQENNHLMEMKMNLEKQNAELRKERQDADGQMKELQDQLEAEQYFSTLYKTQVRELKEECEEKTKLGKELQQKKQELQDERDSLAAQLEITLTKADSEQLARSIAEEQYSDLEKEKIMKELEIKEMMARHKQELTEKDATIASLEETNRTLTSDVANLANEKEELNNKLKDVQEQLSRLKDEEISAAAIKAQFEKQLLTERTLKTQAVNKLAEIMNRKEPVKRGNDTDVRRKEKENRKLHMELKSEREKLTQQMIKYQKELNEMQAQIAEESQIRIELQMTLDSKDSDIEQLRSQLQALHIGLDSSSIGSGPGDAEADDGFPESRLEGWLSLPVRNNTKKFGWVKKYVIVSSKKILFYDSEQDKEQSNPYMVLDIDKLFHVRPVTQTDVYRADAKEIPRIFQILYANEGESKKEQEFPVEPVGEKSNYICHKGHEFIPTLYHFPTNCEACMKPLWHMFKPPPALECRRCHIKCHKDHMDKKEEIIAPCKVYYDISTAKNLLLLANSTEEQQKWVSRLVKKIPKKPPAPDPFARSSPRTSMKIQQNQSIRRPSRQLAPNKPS

Broadly, the pIC50 is the negative decadic logarithm of the IC50, by convention in mol/L. With `Cn1nc(C(=O)N[C@H]2CC3(C2)C[C@H](c2n[nH]c(=O)c4ccccc42)C3)c2ccccc21` (single isomer, unassigned) [Example 14], the pIC50 was 8.30 to 8.70.

Consider `O=C(N[C@H]1CC2(C1)C[C@H](c1n[nH]c(=O)c3ccccc31)C2)c1ccn(CC(F)(F)F)n1` (single isomer, unassigned) [Example 15], for which the pIC50 was 7.82 to 8.29.

Consider `O=C(N[C@H]1CC2(C1)C[C@H](c1n[nH]c(=O)c3ccccc31)C2)c1ccn(CC(F)F)n1` (single isomer, unassigned) [Example 16], for which the pIC50 is 8.30 to 8.70.

Regarding `Cn1nc(C(=O)N[C@H]2CC3(C2)C[C@H](c2n[nH]c(=O)c4ccccc42)C3)c2ccccc21` (single isomer, unassigned) [Example 17], the negative-log IC50 (pIC50) is 5.68 to 7.00.

As for `O=C(N[C@H]1CC2(C1)C[C@H](c1n[nH]c(=O)c3ccccc31)C2)c1ccn(CC(F)(F)F)n1` (single isomer, unassigned) [Example 18], the pIC50 is 5.68 to 7.00.

In the case of `CC(C)(O)Cn1nc(C(=O)NC2CC3(C2)CC(c2n[nH]c(=O)c4ccccc24)C3)c2ccccc21` (single isomer, unassigned) [Example 21], the pIC50 was 8.30 to 8.70.

Regarding `O=C(NC1CC2(C1)CC(c1n[nH]c(=O)c3ccccc13)C2)C1Cc2ccccc2C1` (centres unmarked) [Example 1, N-[6-(4-oxo-3,4-dihydrophthalazin-1-yl)spiro[3.3]heptan-2-yl]-2,3-dihydro-1H-indene-2-carboxamide], the pIC50 is 5.68 to 7.00.

For `CN(C)c1ccc(C(=O)NC2CC3(C2)CC(c2n[nH]c(=O)c4ccccc24)C3)cc1` (centres unmarked) [Example 2, 4-(dimethylamino)-N-[6-(4-oxo-3,4-dihydrophthalazin-1-yl)spiro[3.3]heptan-2-yl]benzamide], the pIC50 is 5.68 to 7.00.

For `O=C(Cc1cccc2ccccc12)NC1CC2(C1)CC(c1n[nH]c(=O)c3ccccc13)C2` (centres unmarked) [Example 3, 2-(naphthalen-1-yl)-N-[6-(4-oxo-3,4-dihydrophthalazin-1-yl)spiro[3.3]heptan-2-yl]acetamide], the pIC50 is 5.68 to 7.00.

Turning to `O=C(Cc1ccc2ccccc2c1)NC1CC2(C1)CC(c1n[nH]c(=O)c3ccccc13)C2` (centres unmarked) [Example 4, 2-(naphthalen-2-yl)-N-[6-(4-oxo-3,4-dihydrophthalazin-1-yl)spiro[3.3]heptan-2-yl]acetamide], the pIC50 was 5.68 to 7.00.

As to `Cn1nc(C(=O)NC2CC3(C2)CC(c2n[nH]c(=O)c4ccccc24)C3)c2ccccc21` (centres unmarked) [Example 5, 1-methyl-N-[6-(4-oxo-3,4-dihydrophthalazin-1-yl)spiro[3.3]heptan-2-yl]-1H-indazole-3-carboxamide], the pIC50 was 8.30 to 8.70.

Regarding `O=C(CCc1ccccc1)NC1CC2(C1)CC(c1n[nH]c(=O)c3ccccc13)C2` (centres unmarked) [Example 6, N-[6-(4-oxo-3,4-dihydrophthalazin-1-yl)spiro[3.3]heptan-2-yl]-3-phenylpropanamide], the pIC50 was 5.68 to 7.00.

Consider `O=C(NC1CC2(C1)CC(c1n[nH]c(=O)c3ccccc13)C2)c1ccn(CC(F)(F)F)n1` (centres unmarked) [Example 7, N-[6-(4-oxo-3,4-dihydrophthalazin-1-yl)spiro[3.3]heptan-2-yl]-1-(2,2,2-trifluoroethyl)-1H-pyrazole-3-carboxamide], for which the pIC50 was 7.82 to 8.29.

Turning to `Cc1nn(-c2ccccc2)cc1C(=O)NC1CC2(C1)CC(c1n[nH]c(=O)c3ccccc13)C2` (centres unmarked) [Example 8, 3-methyl-N-[6-(4-oxo-3,4-dihydrophthalazin-1-yl)spiro[3.3]heptan-2-yl]-1-phenyl-1H-pyrazole-4-carboxamide], the pIC50 was 7.00 to 7.82.

For `CC(C)(C)n1cc(C(=O)NC2CC3(C2)CC(c2n[nH]c(=O)c4ccccc24)C3)cn1` (centres unmarked) [Example 9, 1-tert-butyl-N-[6-(4-oxo-3,4-dihydrophthalazin-1-yl)spiro[3.3]heptan-2-yl]-1H-pyrazole-4-carboxamide], the pIC50 is 7.00 to 7.82.

As for `O=C(NC1CC2(C1)CC(c1n[nH]c(=O)c3ccccc13)C2)c1ccn(-c2ccccc2)n1` (centres unmarked) [Example 10, N-[6-(4-oxo-3,4-dihydrophthalazin-1-yl)spiro[3.3]heptan-2-yl]-1-phenyl-1H-pyrazole-3-carboxamide], the pIC50 is 5.68 to 7.00.

For `CC(C)(O)Cn1nc(C(=O)NC2CC3(C2)CC(c2n[nH]c(=O)c4ccccc24)C3)c2ccccc21` (centres unmarked) [Example 11, 1-(2-hydroxy-2-methylpropyl)-N-[6-(4-oxo-3,4-dihydrophthalazin-1-yl)spiro[3.3]heptan-2-yl]-1H-indazole-3-carboxamide], the pIC50 is 7.00 to 7.82.

For `O=C(NC1CC2(C1)CC(c1n[nH]c(=O)c3ccccc13)C2)c1cnn(-c2ccccc2)c1` (centres unmarked) [Example 12, N-[6-(4-oxo-3,4-dihydrophthalazin-1-yl)spiro[3.3]heptan-2-yl]-1-phenyl-1H-pyrazole-4-carboxamide], the pIC50 was 7.00 to 7.82.

As for `Cc1c(C(=O)NC2CC3(C2)CC(c2n[nH]c(=O)c4ccccc24)C3)cnn1-c1ccccc1` (centres unmarked) [Example 13, 5-methyl-N-[6-(4-oxo-3,4-dihydrophthalazin-1-yl)spiro[3.3]heptan-2-yl]-1-phenyl-1H-pyrazole-4-carboxamide], the pIC50 is 8.30 to 8.70.

With `O=C(N[C@H]1CC2(C1)C[C@H](c1n[nH]c(=O)c3ccccc31)C2)c1ccn(CC(F)F)n1` (stereo partly drawn) [Example 19, 1-(2,2-Difluoroethyl)-N-[(aR)-6-(4-oxo-3,4-dihydrophthalazin-1-yl)spiro[3.3]heptan-2-yl]-1H-pyrazole-3-carboxamide], the pIC50 is 5.68 to 7.00.

Turning to `Cc1c(C(=O)NC2CC3(C2)CC(c2n[nH]c(=O)c4ccccc24)C3)cnn1-c1ccccc1` [Example 20, 5-methyl-N-[(aR)-6-(4-oxo-3,4-dihydrophthalazin-1-yl)spiro[3.3]heptan-2-yl]-1-phenyl-1H-pyrazole-4-carboxamide], the pIC50 was 8.70 to 9.70.

In the case of `O=C(NC1CC2(C1)CC(c1n[nH]c(=O)c3ccccc13)C2)c1ccn(CCC(F)(F)F)n1` [Example 22, N-[(aR)-6-(4-oxo-3,4-dihydrophthalazin-1-yl)spiro[3.3]heptan-2-yl]-1-(3,3,3-trifluoropropyl)-1H-pyrazole-3-carboxamide], the pIC50 is 7.82 to 8.29.

With `O=C(NC1CC2(C1)CC(c1n[nH]c(=O)c3ccccc13)C2)c1ccn(CC2CC2)n1` [Example 23, 1-(cyclopropylmethyl)-N-[(aR)-6-(4-oxo-3,4-dihydrophthalazin-1-yl)spiro[3.3]heptan-2-yl]-1H-pyrazole-3-carboxamide], the pIC50 is 7.82 to 8.29.

As for `Cn1nc(C2CC2)cc1C(=O)NC1CC2(C1)CC(c1n[nH]c(=O)c3ccccc13)C2` [Example 24, 3-cyclopropyl-1-methyl-N-[(aR)-6-(4-oxo-3,4-dihydrophthalazin-1-yl)spiro[3.3]heptan-2-yl]-1H-pyrazole-5-carboxamide], the pIC50 is 8.30 to 8.70.

As to `Cn1nc(C(F)(F)F)cc1C(=O)NC1CC2(C1)CC(c1n[nH]c(=O)c3ccccc13)C2` [Example 25, 1-methyl-N-[(aR)-6-(4-oxo-3,4-dihydrophthalazin-1-yl)spiro[3.3]heptan-2-yl]-3-(trifluoromethyl)-1H-pyrazole-5-carboxamide], the pIC50 is 7.82 to 8.29.

As to `Cn1nc(C(=O)NC2CC3(C2)CC(c2n[nH]c(=O)c4ccccc24)C3)cc1C1CC1` [Example 26, 5-cyclopropyl-1-methyl-N-[(aR)-6-(4-oxo-3,4-dihydrophthalazin-1-yl)spiro[3.3]heptan-2-yl]-1H-pyrazole-3-carboxamide], the pIC50 was 8.30 to 8.70.

For the compound `O=C(NC1CC2(C1)CC(c1n[nH]c(=O)c3ccccc13)C2)c1cnn(C2CC2)c1` [Example 27, 1-cyclopropyl-N-[(aR)-6-(4-oxo-3,4-dihydrophthalazin-1-yl)spiro[3.3]heptan-2-yl]-1H-pyrazole-4-carboxamide], the pIC50 is 7.82 to 8.29.

As to `Cn1nc(C(=O)NC2CC3(C2)CC(c2n[nH]c(=O)c4ccccc24)C3)cc1OC(F)F` [Example 28, 5-(difluoromethoxy)-1-methyl-N-[(aR)-6-(4-oxo-3,4-dihydrophthalazin-1-yl)spiro[3.3]heptan-2-yl]-1H-pyrazole-3-carboxamide], the pIC50 is 7.00 to 7.82.

For `O=C(NC1CC2(C1)CC(c1n[nH]c(=O)c3ccccc13)C2)c1ccn(C2CC2)n1` [Example 29, 1-cyclopropyl-N-[(aR)-6-(4-oxo-3,4-dihydrophthalazin-1-yl)spiro[3.3]heptan-2-yl]-1H-pyrazole-3-carboxamide], the pIC50 was 7.82 to 8.29.

Take `CC(C)(O)Cn1ccc(C(=O)NC2CC3(C2)CC(c2n[nH]c(=O)c4ccccc24)C3)n1` [Example 30, 1-(2-hydroxy-2-methylpropyl)-N-[(aR)-6-(4-oxo-3,4-dihydrophthalazin-1-yl)spiro[3.3]heptan-2-yl]-1H-pyrazole-3-carboxamide]: the pIC50 is 7.00 to 7.82.

As to `CC(C)(O)Cn1nc(C(=O)NC2CC3(C2)CC(c2n[nH]c(=O)c4ccccc24)C3)c2ccc(F)cc21` [Example 31, 6-fluoro-1-(2-hydroxy-2-methylpropyl)-N-[(aR)-6-(4-oxo-3,4-dihydrophthalazin-1-yl)spiro[3.3]heptan-2-yl]-1H-indazole-3-carboxamide], the pIC50 is 8.30 to 8.70.

`Cc1nn(CC(F)F)cc1C(=O)NC1CC2(C1)CC(c1n[nH]c(=O)c3ccccc13)C2` [Example 32, 1-(2,2-difluoroethyl)-3-methyl-N-[(aR)-6-(4-oxo-3,4-dihydrophthalazin-1-yl)spiro[3.3]heptan-2-yl]-1H-pyrazole-4-carboxamide]: the pIC50 was 8.30 to 8.70.

Values taken from patent US9902702B2, “Spirocycloheptanes as inhibitors of rock” (BRISTOL-MYERS SQUIBB COMPANY, priority 2014, dated 2018).
